Legend:
Assay in all cases: relative viability (nuclei count vs DMSO), 5 days (fraction); higher = more cells survive
AZ628 + Tozasertib = compound: CC1=C(C=C(C=C1)NC(=O)C2=CC(=CC=C2)C(C)(C)C#N)NC3=CC4=C(C=C3)N=CN(C4=O)C [AZ628] + Cc1cc(Nc2cc(N3CCN(C)CC3)nc(Sc3ccc(NC(=O)C4CC4)cc3)n2)n[nH]1 [Tozasertib] (partner 0.1 µM)
In short: (§1)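 Medians of duplicate plates are given as relative viability. That measure is the nuclei count in treated wells divided by the count in vehicle wells. Counts were taken on 4× images of lung cancer cell lines in 1536-well plates, 5 days after pin-tool dosing the day after seeding with one drug alone or a fixed anchor-drug dose plus five library-drug doses (not always all listed) in √10 steps.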

[1] = compound: C[As](C)SC[C@H](NC(=O)CC[C@H](N)C(=O)O)C(=O)NCC(=O)O [Darinaparsin] + CC1(C)CCC(c2ccc(Cl)cc2)=C(CN2CCN(c3ccc(C(=O)NS(=O)(=O)c4ccc(N[C@H](CCN5CCOCC5)CSc5ccccc5)c(S(=O)(=O)C(F)(F)F)c4)cc3)CC2)C1 [Navitoclax] (partner 0.5 µM)
In short: as §1

[2] = compound: C[As](C)SC[C@H](NC(=O)CC[C@H](N)C(=O)O)C(=O)NCC(=O)O [Darinaparsin] + Nc1nc2[nH]cc(CCc3ccc(C(=O)N[C@@H](CCC(=O)O)C(=O)O)cc3)c2c(=O)[nH]1 [Pemetrexed] (partner 0.2 µM)
In short: as §1

AZ628 + Bortezomib = compound: CC1=C(C=C(C=C1)NC(=O)C2=CC(=CC=C2)C(C)(C)C#N)NC3=CC4=C(C=C3)N=CN(C4=O)C [AZ628] + CC(C)C[C@H](NC(=O)[C@H](Cc1ccccc1)NC(=O)c1cnccn1)B(O)O [Bortezomib] (partner 0.002 µM)
In short: as §1

Row | Cell Line | relative viability (AZ628 + Tozasertib; first compound 0.08 µM) | relative viability (AZ628 + Tozasertib; first compound 0.253 µM) | relative viability (AZ628 + Tozasertib; first compound 0.8 µM) | relative viability (AZ628 + Tozasertib; first compound 2.53 µM) | relative viability (AZ628 + Tozasertib; first compound 8 µM) | relative viability ([1]; first compound 0.08 µM) | relative viability ([1]; first compound 0.8 µM) | relative viability ([1]; first compound 2.53 µM) | relative viability ([1]; first compound 8 µM) | relative viability ([2]; first compound 0.08 µM) | relative viability ([2]; first compound 0.8 µM) | relative viability ([2]; first compound 8 µM) | relative viability (AZ628 + Bortezomib; first compound 0.08 µM) | relative viability (AZ628 + Bortezomib; first compound 0.253 µM) | relative viability (AZ628 + Bortezomib; first compound 0.8 µM) | relative viability (AZ628 + Bortezomib; first compound 2.53 µM) | relative viability (AZ628 + Bortezomib; first compound 8 µM) | relative viability ([2]; first compound 2.53 µM)
1 | NCI-H1793 | 0.488 | 0.335 | 0.372 | 0.264 | 0.18 | 0.649 | 0.366 | 0.333 | 0.442 | 1.01 | 0.89 | 1.05 |  |  |  |  |  | 
2 | HARA | 0.144 | 0.122 | 0.111 | 0.0923 | 0.0666 | 1.39 | 1.07 | 1.08 | 1.37 | 0.269 |  | 0.294 | 1.1 | 1.08 | 1.08 | 1.03 | 0.568 | 0.22
3 | NCI-H2347 | 0.491 | 0.514 | 0.555 | 0.514 | 0.303 | 0.77 | 0.777 | 0.748 | 0.707 | 0.444 | 0.396 | 0.477 | 0.859 | 0.962 | 0.721 | 0.828 | 0.623 | 0.408
4 | ABC-1 | 0.226 | 0.166 | 0.215 | 0.201 | 0.175 |  |  |  |  |  |  |  | 0.307 | 0.314 | 0.364 | 0.344 | 0.315 | 
5 | NCI-H2342 | 0.616 | 0.529 | 0.673 | 0.514 | 0.471 |  |  |  |  | 0.785 | 0.782 | 0.841 |  |  |  |  |  | 0.743
6 | NCI-H2126 | 0.899 | 0.815 | 0.951 | 0.859 | 0.866 | 0.949 | 0.835 | 0.856 | 0.86 | 0.74 | 0.594 | 0.805 | 1.16 | 1 | 1.13 | 1.17 | 1.18 | 0.666
7 | HOP-62 | 0.396 | 0.38 | 0.362 | 0.358 | 0.326 | 1.39 | 1.2 | 0.963 | 1.13 | 0.421 | 0.36 | 0.361 | 0.814 | 0.832 | 1.12 | 0.975 | 0.805 | 0.276
8 | NCI-H2085 | 0.754 | 0.899 | 0.935 | 0.743 | 0.382 | 1.36 | 1.18 | 1.09 | 1.2 | 0.881 | 0.962 | 0.961 | 1.2 | 1.02 | 1.19 | 1.07 | 1.06 | 0.854
9 | NCI-H1944 | 0.26 | 0.227 | 0.235 | 0.249 | 0.209 | 1.06 | 1.07 | 1.04 | 1.06 | 0.663 | 0.687 | 0.57 |  |  |  |  |  | 0.649
10 | EMC-BAC-2 | 0.294 | 0.335 | 0.381 | 0.349 | 0.362 | 1.24 | 1.14 | 1 | 1.72 | 0.452 | 0.44 | 0.472 | 1.11 | 0.963 | 1 | 0.991 | 1.08 | 0.53
11 | NCI-H2228 | 0.241 | 0.288 | 0.239 | 0.272 | 0.161 | 0.856 | 0.996 | 1.02 | 0.825 | 0.379 | 0.322 | 0.427 | 0.936 | 1.03 | 0.909 | 0.963 | 0.929 | 0.325
12 | A-427 | 0.155 | 0.138 | 0.146 | 0.142 | 0.146 | 0.961 | 1 | 1.03 | 0.98 | 1.06 | 0.934 | 1.02 | 0.884 | 0.993 | 1.1 | 0.94 | 0.452 | 1.1
13 | EPLC-272H | 0.28 | 0.179 | 0.289 | 0.297 | 0.248 | 1.26 | 1.37 | 1.07 | 0.983 | 0.319 | 0.292 | 0.293 | 0.87 | 0.803 | 0.797 | 0.525 | 0.877 | 0.321
14 | A549 |  |  |  |  |  | 1.42 | 1.29 | 1.16 | 1.33 |  |  |  |  |  |  |  |  | 
15 | NCI-H358 | 0.123 | 0.114 | 0.1 | 0.117 | 0.0782 |  |  |  |  | 0.176 | 0.162 | 0.18 |  |  |  |  |  | 0.172
16 | NCI-H2009 | 0.667 | 0.571 | 0.599 | 0.569 | 0.298 | 1.35 | 1.11 | 1.11 | 1.06 | 1.09 | 1.07 | 1.08 | 0.939 | 0.881 | 0.65 | 0.689 | 0.295 | 1
17 | HCC-827 | 0.43 | 0.468 | 0.374 | 0.494 | 0.344 | 1.07 | 1.07 | 1.05 | 1.05 | 0.256 | 0.268 | 0.263 | 1.04 | 1.03 | 1.03 | 1.01 | 1.07 | 0.254

— the supplement of paper PMC10307832
